Usually Ki stands for the equilibrium dissociation constant of an inhibitor or competing ligand from its target. Low readings indicate tighter binding, high ones weaker binding.

Starred links: 1 amine or outer side, 2 acyl side, 3 side chain; linkers in the order of their positions; H or OH if unused. Non-standard residues stand in square brackets, D forms with d. Residues, ends and D or L forms follow the SMILES beside them. Phe(ψ(S)CH(OH)CH2N)Pro = O=C([C@@H]1CCCN1C[C@H](O)[C@H](Cc1ccccc1)N[*:1])[*:2]; Pheψ(R-CH(OH)CH2N)Pro = O=C([C@@H]1CCCN1C[C@@H](O)[C@H](Cc1ccccc1)N[*:1])[*:2]

The assay deals with Human immunodeficiency virus type 1 protease (Human immunodeficiency virus 1, UniProt Q72874).
As for `CC[C@H](C)[C@H](NC(=O)[C@@H]1CCCN1C[C@H](O)[C@H]1Cc2ccc(cc2)OCCCC(=O)NC(CC(N)=O)C(=O)N1)C(N)=O` (some centres not stated), the Ki was 250 nM. As for `CC(C)(C)NC(=O)[C@@H]1CCCN1C[C@H](O)[C@H]1Cc2ccc(cc2)OCCCC(=O)NC(CC(N)=O)C(=O)N1` (some centres not stated), the inhibitory constant (Ki) was 145 nM. Compared with the last molecule, the Ki is about 1.7-fold lower. The molecule `CC[C@H](C)[C@H](NC(=O)[C@@H]1CCCN1C[C@H](O)[C@H]1Cc2ccc(cc2)OCC(=O)NCC(=O)N[C@@H](CC(N)=O)C(=O)N1)C(=O)N[C@H](C(N)=O)C(C)C` displayed an inhibition constant Ki of 11 nM. For the molecule `CC(C)N(C(=O)[C@@H]1CCCN1C[C@@H](O)[C@H]1Cc2ccc(cc2)OCCCC(=O)NC(CC(N)=O)C(=O)N1)C(C)C` (some centres not stated), affinity was put at a Ki of 31000 nM. `CC[C@H](C)[C@H](NC(=O)[C@@H]1CCCN1C[C@@H](O)[C@H](Cc1ccccc1)NC(=O)[C@H](CC(N)=O)NC(=O)[C@H](CC(C)C)NC(C)=O)C(=O)N[C@H](C(N)=O)C(C)C` (Ac-LN[Pheψ(R-CH(OH)CH2N)Pro]IV-NH2) came in with an inhibition constant (Ki) of 18 nM. As for `CC[C@H](C)[C@H](NC(=O)[C@@H]1CCCN1C[C@@H](O)[C@@H]1CSSC[C@@H](NC(C)=O)C(=O)NCC(=O)N[C@@H](CC(N)=O)C(=O)N1)C(=O)N[C@H](C(N)=O)C(C)C`, the affinity, expressed as Ki, was 36000 nM.

`CC(C)[C@@H]1NC(=O)CCCCCOc2ccc(cc2)C[C@H]([C@H](O)CN2CCCC[C@H]2C(=O)NC(C)(C)C)NC1=O` displayed a Ki of 50 nM. In turn, `CC[C@H](C)[C@H](NC(=O)[C@@H]1CCCN1CC(O)[C@H]1Cc2ccc(cc2)OCC(=O)N[C@H](CCC(N)=O)C(=O)N[C@@H](CC(N)=O)C(=O)N1)C(=O)N[C@H](C(N)=O)C(C)C` (mixture of isomers) came in with an inhibition constant (Ki) of 4 nM.

In turn, `CC[C@H](C)[C@H](NC(=O)[C@@H]1CCCN1C[C@@H](O)[C@H]1Cc2ccc(cc2)OCC(=O)N[C@@H](Cc2ccc(O)cc2)C(=O)N[C@@H](CC(N)=O)C(=O)N1)C(=O)N[C@H](C(N)=O)C(C)C` yielded a Ki of 165 nM. In the case of `CC[C@H](C)[C@H](NC(=O)[C@@H]1CCCN1C[C@@H](O)[C@H]1Cc2ccc(cc2)OCCCC(=O)NC(CC(N)=O)C(=O)N1)C(N)=O` (some centres not stated), affinity was put at a Ki of 2800 nM. In turn, `CC[C@@H](C)[C@@H]1NC(=O)[C@@H](NC[C@@H](O)[C@@H]2Cc3ccc(cc3)OCCCCC(=O)N[C@@H](C(C)C)C(=O)N2)Cc2ccc(cc2)OCCCNC1=O` came in with a Ki of 3 nM. `CC[C@H](C)[C@H](NC(=O)[C@@H]1CCCN1C[C@@H](O)[C@H]1Cc2ccc(cc2)OCC(=O)NCC(=O)N[C@@H](CC(N)=O)C(=O)N1)C(=O)N[C@H](C(N)=O)C(C)C` showed a Ki of 200 nM.

In turn, `CC[C@H](C)[C@H](NC(=O)[C@@H]1CCCN1C[C@H](O)[C@@H]1CSSC[C@@H](NC(C)=O)C(=O)NCC(=O)N[C@@H](CC(N)=O)C(=O)N1)C(=O)N[C@H](C(N)=O)C(C)C` came in with a Ki of 250 nM. Molecule `NC(=O)CC1NC(=O)CCCOc2ccc(cc2)C[C@H]([C@@H](O)CN2CCC[C@H]2C(N)=O)NC1=O` (some centres not stated) yielded a Ki of 36000 nM.

`CC(C)N(C(=O)[C@@H]1CCCN1C[C@H](O)[C@H]1Cc2ccc(cc2)OCCCC(=O)NC(CC(N)=O)C(=O)N1)C(C)C` (some centres not stated) returned an inhibition constant (Ki) of 86000 nM. Molecule `CC(C)(C)NC(=O)[C@H](Cc1ccccc1)NCC(O)[C@@H]1Cc2ccc(cc2)OCCCC(=O)NC(CC(N)=O)C(=O)N1` (mixture of isomers) had a Ki of 10300 nM. `CC(C)CN(CC(=O)NC(C)(C)C)C[C@H](O)[C@H]1Cc2ccc(cc2)OCCCC(=O)N[C@@H](CC(N)=O)C(=O)N1`: the Ki came out at 380 nM. Regarding `CC(C)CN(CC(=O)NC(C)(C)C)C[C@@H](O)[C@H]1Cc2ccc(cc2)OCCCC(=O)N[C@@H](CC(N)=O)C(=O)N1`, affinity was put at a Ki of 250 nM. Take `CC[C@H](C)[C@H](NC(=O)[C@@H]1CCCN1C[C@H](O)[C@H]1Cc2ccc(cc2)OCCCCC(=O)NC(CC(N)=O)C(=O)N1)C(=O)N[C@H](C(N)=O)C(C)C` (some centres not stated): affinity was put at a Ki of 8 nM.

In turn, `CC(C)(C)NC(=O)CN(Cc1ccccc1)C[C@H](O)[C@H]1Cc2ccc(cc2)OCCCC(=O)N[C@@H](CC(N)=O)C(=O)N1` yielded a Ki of 13600 nM. Consider `CC[C@H](C)[C@H](NC(=O)[C@@H]1CCCN1C[C@@H](O)[C@H]1Cc2ccc(cc2)OCCCCC(=O)NC(CC(N)=O)C(=O)N1)C(=O)N[C@H](C(N)=O)C(C)C` (some centres not stated), for which the Ki is 74 nM. For `CC(C)(C)NC(=O)CN(Cc1ccccc1)C[C@@H](O)[C@H]1Cc2ccc(cc2)OCCCC(=O)N[C@@H](CC(N)=O)C(=O)N1` the value was 440 nM; for `CC[C@H](C)[C@H](NC(=O)[C@@H]1CCCN1C[C@H](O)[C@H](Cc1ccccc1)NC(=O)[C@H](CC(N)=O)NC(=O)[C@H](CC(C)C)NC(C)=O)C(=O)N[C@H](C(N)=O)C(C)C` (Ac-LN[Phe(ψ(S)CH(OH)CH2N)Pro]IV-NH2), 3 nM.

Consider `CC[C@H](C)[C@H](NC(=O)[C@@H]1CCCN1C[C@H](O)[C@H]1Cc2ccc(cc2)OCC(=O)N[C@@H](Cc2ccc(O)cc2)C(=O)N[C@@H](CC(N)=O)C(=O)N1)C(=O)N[C@H](C(N)=O)C(C)C`, for which the Ki is 11 nM. This Ki is about 3.7-fold higher than that of the molecule before. With `NC(=O)CC1NC(=O)CCCOc2ccc(cc2)C[C@H]([C@H](O)CN2CCC[C@H]2C(N)=O)NC1=O` (some centres not stated) the figure was 16000 nM; with `CC(C)[C@@H]1NC(=O)CCCCOc2ccc(cc2)C[C@H]([C@H](O)CN2CCCC[C@H]2C(=O)NC(C)(C)C)NC1=O`, 17 nM; with `CC(C)(C)NC(=O)[C@@H]1CCCN1C[C@@H](O)[C@H]1Cc2ccc(cc2)OCCCC(=O)NC(CC(N)=O)C(=O)N1` (some centres not stated), 57 nM.

The values are drawn from ChEMBL document CHEMBL1129084, “Structure-activity relationships for macrocyclic peptidomimetic inhibitors of HIV-1 protease” (Bioorg Med Chem Lett, 1996).
